Molecular target: T1, CDK9 (Homo sapiens, UniProt P50750)
T1 construct: NCIH211 cells with endogenously tagged N-terminal CDK9-HiBit; endogenous in cells; host or cells: NCIH211 cells (endogenous CDK9 locus tagged with HiBit)
Experiment: CDK9 degradation by HiBit assay, NCIH211 cells
Assay type: cell-based
Details: NCIH211 cells with endogenously tagged N-terminal CDK9-HiBit, 24 hours incubation; read-out: HiBit-NCIH211.2 DC50
Description: Exemplary compounds of the invention were tested for degradation of CDK9. The compounds were tested in 10-dose DC50 duplicate mode with a 3-fold serial dilution starting at 10 μM by HiBit assay (Promega, Inc) as a direct measurement of CDK9 presence, with incubation time of 24 hours using either NCIH211 cells with endogenously tagged N-terminal CDK9-HiBit or NCIH1048 cells with endogenously tagged N-terminal CDK9-HiBit. A control compound (THAL-SNS-032, CAS 2139287-33-3) was tested in 10-dose DC50 mode with 3-fold serial dilution starting at 10 μM. Data was normalized to positive (medium only) and negative (cells with no treatment) controls and curve fits were analyzed with CDK9 as % response vs. log [compound concentration] using a 4-parameter logistic model by GraphPad software. For Table 2: A is <100, B is <1000 C is <10,000, D is >10,000 and ND is Not Determined.

T1 sequence (P50750 whole entry): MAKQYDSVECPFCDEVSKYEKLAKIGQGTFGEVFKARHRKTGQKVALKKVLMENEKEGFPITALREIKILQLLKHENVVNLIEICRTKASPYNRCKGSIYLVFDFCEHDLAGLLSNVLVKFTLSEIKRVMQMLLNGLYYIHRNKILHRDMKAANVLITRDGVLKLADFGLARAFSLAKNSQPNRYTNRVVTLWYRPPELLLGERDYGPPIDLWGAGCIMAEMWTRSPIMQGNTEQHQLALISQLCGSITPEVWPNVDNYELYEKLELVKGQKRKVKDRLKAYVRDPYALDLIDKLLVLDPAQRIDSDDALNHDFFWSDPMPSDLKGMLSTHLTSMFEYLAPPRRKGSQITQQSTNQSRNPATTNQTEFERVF
T1 sequence (O60563 whole entry partner): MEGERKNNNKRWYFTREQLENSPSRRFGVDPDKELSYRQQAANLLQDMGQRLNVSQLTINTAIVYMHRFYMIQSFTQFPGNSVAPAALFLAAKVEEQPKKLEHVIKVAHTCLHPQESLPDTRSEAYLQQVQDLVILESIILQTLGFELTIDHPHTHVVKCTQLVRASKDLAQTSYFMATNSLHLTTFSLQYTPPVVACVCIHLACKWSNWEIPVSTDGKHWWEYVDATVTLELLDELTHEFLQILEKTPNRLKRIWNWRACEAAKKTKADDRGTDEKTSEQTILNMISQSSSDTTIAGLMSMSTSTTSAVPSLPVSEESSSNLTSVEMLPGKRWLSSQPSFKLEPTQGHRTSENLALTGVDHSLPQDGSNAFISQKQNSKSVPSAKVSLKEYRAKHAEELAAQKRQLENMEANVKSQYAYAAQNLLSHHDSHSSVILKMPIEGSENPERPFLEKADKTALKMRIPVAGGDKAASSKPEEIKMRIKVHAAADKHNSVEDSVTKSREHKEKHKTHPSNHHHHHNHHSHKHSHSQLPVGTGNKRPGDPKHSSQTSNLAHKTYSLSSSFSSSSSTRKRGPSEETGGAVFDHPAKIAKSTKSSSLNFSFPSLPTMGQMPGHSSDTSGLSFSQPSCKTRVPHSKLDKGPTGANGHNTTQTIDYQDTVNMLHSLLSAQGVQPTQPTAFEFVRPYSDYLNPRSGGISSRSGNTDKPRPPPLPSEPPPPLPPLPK

Row | Structure (SMILES) | DC50 [µM]
1 | CCC(CC)c1cc(N[C@H]2CC[C@H](NCC(=O)NCc3cn(CCOCCOc4cc(-c5scnc5C)ccc4CNC(=O)[C@@H]4C[C@@H](O)CN4C(=O)[C@H](C(C)C)N4Cc5ccccc5C4=O)nn3)C2)n2nccc2n1 [Compound 29.0] | > 10
2 | CCC(CC)c1cc(N[C@H]2CC[C@H](NCC(=O)NCc3cn(CCOCCOCCOCCOc4cc(-c5scnc5C)ccc4CNC(=O)[C@@H]4C[C@@H](O)CN4C(=O)[C@H](C(C)C)N4Cc5ccccc5C4=O)nn3)C2)n2nccc2n1 [Compound 31.0] | > 10
3 | CCC(CC)c1cc(N[C@H]2CC[C@H](NCC(=O)NCc3cn(CCOCCOCCOCCOCCOc4cc(-c5scnc5C)ccc4CNC(=O)[C@@H]4C[C@@H](O)CN4C(=O)[C@H](C(C)C)N4Cc5ccccc5C4=O)nn3)C2)n2nccc2n1 [Compound 32.0] | > 10
4 | CCC(CC)c1cc(N[C@H]2CC[C@H](NCc3cn(CCOCCOc4cc(-c5scnc5C)ccc4CNC(=O)[C@@H]4C[C@@H](O)CN4C(=O)[C@H](C(C)C)N4Cc5ccccc5C4=O)nn3)C2)n2nccc2n1 [Compound 37.0] | > 10
5 | CCC(CC)c1cc(N[C@H]2CC[C@H](NCc3cn(CCOCCOCCOc4cc(-c5scnc5C)ccc4CNC(=O)[C@@H]4C[C@@H](O)CN4C(=O)[C@H](C(C)C)N4Cc5ccccc5C4=O)nn3)C2)n2nccc2n1 [Compound 38.0] | > 10
6 | CCC(CC)c1cc(N[C@H]2CC[C@H](NCc3cn(CCOCCOCCOCCOc4cc(-c5scnc5C)ccc4CNC(=O)[C@@H]4C[C@@H](O)CN4C(=O)[C@H](C(C)C)N4Cc5ccccc5C4=O)nn3)C2)n2nccc2n1 [Compound 39.0] | > 10
7 | CCC(CC)c1cc(N[C@H]2CC[C@H](NCc3cn(CCOCCOCCOCCOCCOc4cc(-c5scnc5C)ccc4CNC(=O)[C@@H]4C[C@@H](O)CN4C(=O)[C@H](C(C)C)N4Cc5ccccc5C4=O)nn3)C2)n2nccc2n1 [Compound 40.0] | > 10
8 | CCC(CC)c1cc(N[C@H]2CC[C@H](NCC(=O)NCCCc3cn(CCOCCOCCOCCOCC(=O)N[C@H](C(=O)N4C[C@H](O)C[C@H]4C(=O)NCc4ccc(-c5scnc5C)cc4)C(C)(C)C)nn3)C2)n2ncc(Cl)c2n1 [Compound 41.0] | > 10
9 | CCC(CC)c1cc(N[C@H]2CC[C@H](NCC(=O)NCCCc3cn(CCOCCOCCOCC(=O)N[C@H](C(=O)N4C[C@H](O)C[C@H]4C(=O)NCc4ccc(-c5scnc5C)cc4)C(C)(C)C)nn3)C2)n2ncc(Cl)c2n1 [Compound 42.0] | > 10
10 | CCC(CC)c1cc(N[C@H]2CC[C@H](NCC(=O)NCCCc3cn(CCOCC(=O)N[C@H](C(=O)N4C[C@H](O)C[C@H]4C(=O)NCc4ccc(-c5scnc5C)cc4)C(C)(C)C)nn3)C2)n2ncc(Cl)c2n1 [Compound 43.0] | > 10

Other lines, results leading:

Row | DC50 [µM] | Structure (SMILES)
11 | > 10 | CCC(CC)c1cc(N[C@H]2CC[C@H](NCC(=O)NCc3cn(CCOCCOCCOCC(=O)N[C@H](C(=O)N4C[C@H](O)C[C@H]4C(=O)NCc4ccc(-c5scnc5C)cc4)C(C)(C)C)nn3)C2)n2nccc2n1 [Compound 27.0]
12 | > 10 | CCC(CC)c1cc(N[C@H]2CC[C@H](NCC(=O)NCc3cn(CCOCCOCCOCCOCC(=O)N[C@H](C(=O)N4C[C@H](O)C[C@H]4C(=O)NCc4ccc(-c5scnc5C)cc4)C(C)(C)C)nn3)C2)n2nccc2n1 [Compound 28.0]
13 | > 10 | CCC(CC)c1cc(N[C@H]2CC[C@H](NCc3cn(CCOCC(=O)N[C@H](C(=O)N4C[C@H](O)C[C@H]4C(=O)NCc4ccc(-c5scnc5C)cc4)C(C)(C)C)nn3)C2)n2nccc2n1 [Compound 33.0]
14 | > 10 | CCC(CC)c1cc(N[C@H]2CC[C@H](NCc3cn(CCOCCOCC(=O)N[C@H](C(=O)N4C[C@H](O)C[C@H]4C(=O)NCc4ccc(-c5scnc5C)cc4)C(C)(C)C)nn3)C2)n2nccc2n1 [Compound 34.0]
15 | > 10 | CCC(CC)c1cc(N[C@H]2CC[C@H](NCc3cn(CCOCCOCCOCC(=O)N[C@H](C(=O)N4C[C@H](O)C[C@H]4C(=O)NCc4ccc(-c5scnc5C)cc4)C(C)(C)C)nn3)C2)n2nccc2n1 [Compound 35.0]
16 | > 10 | CCC(CC)c1cc(N[C@H]2CC[C@H](NCc3cn(CCOCCOCCOCCOCC(=O)N[C@H](C(=O)N4C[C@H](O)C[C@H]4C(=O)NCc4ccc(-c5scnc5C)cc4)C(C)(C)C)nn3)C2)n2nccc2n1 [Compound 36.0]

From US20250188084A1, “COMPOUNDS AND METHODS FOR MODULATING CDK9 ACTIVITY” (KRONOS BIO, INC., priority 2020, published 2025)
